Experimental data taken from paper PMC13242511, “Disrupting Notch signalling by a small molecule inhibiting dihydroorotate dehydrogenase activity” (Scientific Reports, 2026).
Where a SMILES comes first, the peptide text is derived from it. The star is where a group is joined. Cbz = O=C(OCc1ccccc1)*

Tests used:
Drosophila melanogaster = settings: cited from earlier work
[1] = test system: mNotch1ΔE fused to an HiBiT tag; assay: HiBit reporter assay; format: cell-based, mouse; settings: 24 h, 14-point dose-response; Supplemental Fig. 8D,G
Method: The Notch1ΔE construct used to generate the Notch reporter cell line (see above) was first cloned in frame into the pBiT3.2-C [TK/HiBiT/Blast] Vector (Promega) and then stably introduced into HEK293T wild type cells, using Lipofectamine transfection, as described. Analogous to the Notch reporter cell line, Blasticidin was used as a selection marker (0.1 mg/ml) and stable cell lines with robust luciferase signals were generated. […] A clone (#D2) with an empty HiBit vector stably integrated was used as control.
20 µl containing 4,000 cells were seeded on 384-well pre-spotted compound plates (Greiner, cat #781080). Cells were incubated for 24 h and viability was determined using CellTiter-Fluor (Promega, cat # G6080), following the manufacturer’s instructions. Next, cells were subjected to the HiBit assay according to the manufacturer’s instructions (Promega, cat # N3030). Prior to cell lysis, the tissue culture plates were allowed to cool down to room temperate. Fluorescence and luminescence signals were recorded using a SpectraMax i3 (Molecular devices) and signals were read at different time-points to determine optimal signal stability. Cells cultivated only with DMSO were used as a reference to determine effects of compounds. MG132, Bafilomycin A1 and the GSI RO4929097 served as additional controls. Celastrol was used to determine the assay window, and a minimum of two technical replicates were measured per assay.

[2] = test system: Notch1 ICD-induced mouse model of T-ALL; set-up: method as in PMID 37648673; settings: cited from earlier work
γ-secretase complex = γ-secretase complex (Homo sapiens, UniProt P49768); assay: APP-C99 counter assay (GSI reporter assay); format: cell-based; settings: for 3p-DR in % of DMSO counter: APP-C99 counter assay
Method in brief: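 Cells transfected with APP-C99 firefly luciferase reporter plus renilla normalization plasmid, seeded 24 h later onto compound plates and cultured 24 h. Dual luciferase read in triplicate per concentration; IC50 from variable-slope log(inhibitor) fit, with AUC also calculated from dose–response curves.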

Notch signalling [3] = assay: Notch reporter assay (12xCSL firefly luciferase / renilla luciferase, HEK293T Notch1ΔE reporter cell line clone #A1-11); format: cell-based; settings: 24 h, unit from Fig. 2 legend
Notch signalling [4] = assay: as above; format: cell-based; set-up: Confirmation screen: unit not given here; settings: for inhibitor ratio in % of DMSO in 3 point DR: 3-point DR confirmation screen, Notch reporter assay
Method in brief: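 Compounds at two-fold concentration in 10 µl medium were brought to one-fold by adding 10 µl holding 4000 Notch reporter cells (clone #A1-11) per well of a 384-well plate. After 24 h, Promega dual-GLO firefly and renilla luciferase were read on a SpectraMaxi3. Dose-response curves were fitted with a log(inhibitor) vs. response variable-slope model.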

[5] = test system: T-ALL and breast cancer cell lines; assay: Growth inhibition in tumour cell lines (panel, cell lines not named singly); format: cell-based; settings: overview in comparison to compound C; Supplemental Fig. 9
Text: We next investigated whether compounds A-E affected growth and viability of cell lines from T-cell acute lymphoblastic leukaemia (T-ALL) and breast cancer, two tumour types in which elevated Notch signalling has been implicated in tumorigenesis. […] When testing analogues of compounds B and C, five of the seven B analogues and one of the two C analogues produced dose–response curves and IC50s, which however were higher compared to the original hits (Supplemental Fig. 5A; IC50s are presented in Supplemental Table 6).
Compounds were spotted on white 384-well tissue culture plates (Greiner, cat #781080) using an Echo 525 Acoustic liquid handler (Labcyte). Cells were grown to 80% confluence, detached if required, counted and 20 µl containing 2000–4000 cells per well was then seeded in each well and cultivated for three (4,000 cells seeded) and six days (2,000 cells seeded). […] Luciferase activity (reading out metabolic activity) was determined using the CellTiter-Glo 2.0 kit (CTG, Promega, cat #G9242) following the manufacturer’s instructions and luminescence was measured on a SpectraMaxi3 or Varioscan plate reader (Molecular Devices, Thermofisher).

[6] = 10 µM, sheet conf vs counter 10 µM
[7] = 25 µM, sheet "conf vs counter 25 µM", same values given as % of DMSO in sheet "3p-DR in % of DMSO counter"
[8] = 10 µM, sheet conf vs counter 10 µM, same values as 3-point DR confirmation screen
[9] = 25 µM, Notch reporter 3-point dose-confirmation assay, sheet "conf vs counter 25 µM"
[10] = overview in comparison to compound C, Supplemental Fig. 9

Row | Molecule | phenotype after chemical DHODH inhibition (Drosophila melanogaster) | HiBiT luciferase signal [1] | outcome in Notch1 ICD-induced mouse model of T-ALL [2] | 3p-DR in % of DMSO counter (γ-secretase complex; 10µM) | Counter screen (Hek APP-C99) (γ-secretase complex; [6]) | 3p-DR in % of DMSO counter (γ-secretase complex; 25µM) | Counter screen (Hek APP-C99) (γ-secretase complex; [7]) | 3p-DR in % of DMSO counter (γ-secretase complex; 1,25µM) | Primary screen at 10 µM (Notch reporter signal) (Notch signalling [3]) | inhibitor ratio in % of DMSO in 3 point DR (Notch signalling [4]; 10µM) | Confirmation screen (Notch signalling [4]; [8]) | inhibitor ratio in % of DMSO in 3 point DR (Notch signalling [4]; 25µM) | Confirmation screen (Notch signalling [4]; [9]) | inhibitor ratio in % of DMSO in 3 point DR (Notch signalling [4]; 1,25µM) | APP assay (γ-secretase complex; [10]) | viability assay [5] | IC50 (Notch signalling [4]; expanded dose range 500 nM-25 pM, Fig. 7E, read-out: IC50, Notch reporter activity) [nM] | Notch assay (Notch signalling [4]; [10])
1 | Cc1c(C(=O)O)[nH]c(=O)[nH]c1=O [5-methyl orotate] | phenocopied Notch mutations |  |  |  |  |  |  |  |  |  |  |  |  |  |  |  |  | 
2 | CC(C)C[C@@H](C=O)NC(=O)[C@H](CC(C)C)NC(=O)[C@H](CC(C)C)NC(=O)OCc1ccccc1 [MG132, reference compound] (Cbz-Leu-Leu-Leu-aldehyde) |  | increased the HiBiT signal |  |  |  |  |  |  |  |  |  |  |  |  |  |  |  | 
3 | Cc1c(-c2ccc(-c3ccccc3F)cc2)nc2ccc(F)cc2c1C(=O)O [brequinar] |  |  | curative |  |  |  |  |  |  |  |  |  |  |  |  |  |  | 
4 | O=C(NC(Nc1cccc(C(F)(F)F)c1)C(=O)c1ccccc1)c1ccc(Cl)cc1 (stereo not drawn) [CBK263585] |  |  |  | 79.4 % of DMSO | 79.4 | 84.5 % of DMSO | 84.5 | 97.7 % of DMSO | 61.4 % of DMSO | 59.9 % of DMSO | 59.9 | 46.6 % of DMSO | 46.6 | 104.0 % of DMSO |  |  |  | 
5 | FC(F)(F)CCN1CCC2(CC1)NCCc1c2[nH]c2ccc(Cl)cc12 [CBK039331] |  |  |  | 111.0 % of DMSO | 111.0 | 121.8 % of DMSO | 121.7 | 81.3 % of DMSO | 64.3 % of DMSO | 79.3 % of DMSO | 79.3 | 73.3 % of DMSO | 73.3 | 98.4 % of DMSO |  |  |  | 
6 | CO/C1=C\C(C)=C\[C@@H](C)[C@@H](O)[C@@H](C)C/C(C)=C/C=C/[C@H](OC)[C@@H]([C@@H](C)[C@@H](O)[C@H](C)[C@@]2(O)C[C@@H](O)[C@H](C)[C@@H](C(C)C)O2)OC1=O [Bafilomycin A1, reference compound] |  | increased the HiBiT signal |  |  |  |  |  |  |  |  |  |  |  |  |  |  |  | 
7 | COc1ccc2cc(C(=O)N3CCC(c4ccncc4)CC3)[nH]c2c1 [CBK283799] |  |  |  | 49.5 % of DMSO | 49.5 | 70.8 % of DMSO | 70.8 | 72.9 % of DMSO | 60.5 % of DMSO | 56.5 % of DMSO | 56.5 | 73.6 % of DMSO | 73.6 | 82.5 % of DMSO |  |  |  | 
8 | C[C@@H]1C(=O)O[C@H]2[C@H]1CC[C@@]1(C)Cc3sc(NC(=O)CN(C)C)nc3[C@@H](C)[C@H]21 [CBK289431] |  |  |  | 58.4 % of DMSO | 58.4 | 61.0 % of DMSO | 61.0 | 71.4 % of DMSO | 41.2 % of DMSO | 39.6 % of DMSO | 39.6 | 35.0 % of DMSO | 35.0 | 40.7 % of DMSO |  |  |  | 
9 | BAY2402234 [reference compound] |  |  |  |  |  |  |  |  |  |  |  |  |  |  | higher potency | reduced | 11 | higher potency
10 | c1ccc2c(c1)CCN(c1nc3cc4c(cc3s1)OCCO4)C2 [CBK287498] |  |  |  | 45.9 % of DMSO | 45.9 | 37.5 % of DMSO | 37.5 | 59.5 % of DMSO | 36.8 % of DMSO | 38.9 % of DMSO | 38.9 | 27.1 % of DMSO | 27.1 | 48.5 % of DMSO |  |  |  | 
11 | O=C(Nc1sccc1C(=O)N1CCOCC1)C(Sc1ccccc1)c1ccccc1 (stereo not drawn) [CBK268165] |  |  |  | 58.6 % of DMSO | 58.6 | 58.2 % of DMSO | 58.2 | 84.7 % of DMSO | 64.8 % of DMSO | 60.1 % of DMSO | 60.1 | 57.1 % of DMSO | 57.1 | 101.2 % of DMSO |  |  |  | 
12 | Cc1ccc(NC(=O)c2cnc(SCc3ccc(F)cc3)n(C)c2=O)cc1C [CBK287674] |  |  |  | 109.0 % of DMSO | 108.9 | 82.2 % of DMSO | 82.2 | 116.8 % of DMSO | 65.6 % of DMSO | 73.8 % of DMSO | 73.8 | 47.2 % of DMSO | 47.2 | 99.3 % of DMSO |  |  |  | 
13 | NC(=O)c1[nH]nc(C2OC(CO)C(O)C2O)c1O (stereo not drawn) [CBK201236] |  |  |  | 107.3 % of DMSO | 107.3 | 111.1 % of DMSO | 111.1 | 135.7 % of DMSO | 54.3 % of DMSO | 67.4 % of DMSO | 67.4 | 65.5 % of DMSO | 65.5 | 68.2 % of DMSO |  |  |  | 
